In patent publication US6274615A, “Method for delaying the onset of alheimer's disease and for treatment or delaying the onset of other amyloidosis-related diseases/disorders” (South Alabama Medical Science Foundation, priority 1999, dated 2001):
Entries after “also recorded” stand apart in the source; their conditions may differ. Like-named read-outs stand apart in the source and are kept apart here.

How the values were obtained:
Aβ1-40 [1] = molecular target: T1, Aβ1-40 (Homo sapiens, UniProt P05067); test: Circular dichroism spectroscopy of Aβ1-40 (secondary structure); settings: for structural changes (secondary structure) / change of random conformation / change of β-sheet content: Aβ1-40 250 μM + 100 μM compound; for structural changes (secondary structure): 24 h; for change of random conformation / change of β-sheet content: time 0
T1 construct: aggregates to fibrils
T1 sequence (P05067 672-711): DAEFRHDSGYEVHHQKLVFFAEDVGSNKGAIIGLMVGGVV
Procedure: (§1) The corresponding percentages of the different secondary structure motifs are shown for Aβ1-40 at time 0 in (FIG. 1C) and 24 hours (FIG. 1D) and for Aβ1-42 at time 0 (FIG. 1G) and 4 hours (FIG. 1H). An average of 40 scans/independent experimental condition was obtained. An independent experiment yielded qualitatively similar data.
(§2) Peptides Aβ1-40 and Aβ1-42 were synthesized in the W. M. Keck Foundation (Yale University, Conn.), and their purity was evaluated by amino acid sequence and laser […] mass spectrometry as described (Soto et al., 1996).
(§3) Spectra in the far ultraviolet light (190-250 nm) were recorded at various time intervals with a Jasco-720 spectropolarimeter as described (Soto et al., 1996) using a cell path of 0.01 cm. […] 40 scans/experimental condition were obtained at 0.2 nm intervals over the wavelength range 190-250 nm. The data were analyzed by the Lincomb algorithm (Perczel et al., 1992) to obtain the percentages of the different secondary structure motifs.

Aβ1-42 [2] = molecular target: T2, Aβ1-42 (Homo sapiens, UniProt P05067); test: Circular dichroism spectroscopy of Aβ1-42 (secondary structure); settings: for structural changes (secondary structure): Aβ1-42 250 μM + 100 μM compound, time 0 and 4 h; for amount of β-sheet structures: Aβ1-42 250 μM + melatonin 100 μM
T2 construct: aggregates to fibrils
T2 sequence (P05067 672-713): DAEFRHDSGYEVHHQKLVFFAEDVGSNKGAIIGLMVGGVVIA
Procedure: as §1, §2, §3

Aβ1-40 [3] = molecular target: T1, Aβ1-40; test: Electron microscopy of Aβ1-40 amyloid fibril formation; type: biochemical
Text: Bar is 200 nm. […] EM grids were extensively and carefully examined, and a negative result was only documented when fibrils were totally absent from the grids.

[4] = tested on: circadian disorders due to jet lag; settings: oral, 0.25-10 mg; Arendt et al., 1987; cited from earlier work
[5] = Tan et al., 1993, cited from earlier work
Aβ1-42 [6] = molecular target: T2, Aβ1-42; test: Electron microscopy of Aβ1-42 amyloid fibril formation; type: biochemical
Procedure: The formation of amyloid fibrils was monitored at 0, 2, and 6 h.

calmodulin = settings: Benitez-King et al., 1993; cited from earlier work
[7] = tested on: cultured neuroblastoma cells; settings: cytotoxic fragment of amyloid β-protein; Pappolla et al., 1997; cited from earlier work
[8] = cited from earlier work
microtubular components = settings: Benitez-King et al., 1993; cited from earlier work
Aβ1-40 [9] = molecular target: T1, Aβ1-40; test: 1H NMR titration of Aβ1-40 with melatonin (binding)
Procedure: The solution conditions for the NMR and CD studies were similar, except that deuterated water (D2 O) in phosphate buffer was used in the NMR study. All ^1 H NMR spectra were obtained at 600 MHz using a Varian UnityPlus-600 spectrometer, and the data were processed using the FELIX program (version 95.0, Biosym, Inc.). The NMR solutions were prepared in D2 O (0.6 ml) with sodium phosphate buffer (5 mM, pH 7.5), perdeuterated Na2 EDTA (0.5 mM), NaN3 (0.05 mM), and 3-(trimethylsilyl) propionate-2,2,3,3-d4 (0.05 mM), the last of which serves as a internal chemical shift reference at 0 ppm. The NMR measurements were performed at 10° C. and the residual proton absorption of D2 O was suppressed by low power irradiation during the recycle delay. For all spectra, 128 scans were required with a total recycle delay of 4.2 s, which included an acquisition time and recycle delay of 2.2 and 2.0 s, respectively. The digital resolution of the acquired data was 0.24 Hz/pt, which was reduced to 0.12 Hz/pt by zero-filling the data once before processing. To further improve the resolution, before Fourier transformation spectra were multiplied by a Lorentzian-to-Gaussian weighting factor. This experiment was duplicated on two different days.

[10] = tested on: intrinsic cellular antioxidant defenses; settings: Huerto-Delgadillo et al., 1994; cited from earlier work
[11] = Aβ1-40, incubated for up to 48 h

With `CC(=O)NCCc1c[nH]c2ccc(O)cc12` [NAT, 5-hydroxy-N-acetyl-tryptamine] the “structural changes (secondary structure)” value (Aβ1-40 [1]) was “no structural changes”, the “change of random conformation” value (Aβ1-40 [1]) was “This effect was not observed” and the “change of β-sheet content” value (Aβ1-40 [1]) was “This effect was not observed”. The “structural changes (secondary structure)” value (Aβ1-42 [2]) was “not elicited” and the Aβ1-40 fibril formation (Aβ1-40 [3]; [11]) was “Well formed amyloid fibrils are easily recognized; also recorded: fibrils were abundant and easily identifiable”.
For `CC(C)(C)[N+]([O-])=Cc1ccccc1` [PBN, N-t-butyl-α-phenylnitrone], the “structural changes (secondary structure)” value (Aβ1-40 [1]) was “only small effects”, the “change of random conformation” value (Aβ1-40 [1]) was “This effect was not observed” and the “change of β-sheet content” value (Aβ1-40 [1]) was “This effect was not observed”. The “structural changes (secondary structure)” value (Aβ1-42 [2]) was “not elicited”, the Aβ1-40 fibril formation (Aβ1-40 [3]; [11]) was “Well formed amyloid fibrils are easily recognized; also recorded: fibrils were abundant and easily identifiable” and the Aβ1-40 fibril formation (Aβ1-40 [3]; PBN 10, 100, and 200 μM, 48 h) was “Fibrils were abundant in all these tubes”.
For `COc1ccc2[nH]cc(CCNC(C)=O)c2c1` [melatonin, N-[2-(5-methoxy-1H-indol-3-yl)ethyl] acetamide], the “treatment of circadian disorders due to jet lag” value [4] is listed as “used successfully to treat circadian disorders due to jet lag”, the “crossing of the blood-brain barrier” value [5] is listed as “passes easily across the blood-brain barrier; also recorded: crosses the blood-brain barrier with ease” and the “crossing of the blood-brain barrier” value ([5]; listed as Melatonin) is listed as “rapidly crosses the blood brain barrier”. The Aβ1-42 fibril formation (Aβ1-42 [6]; 250 μM Aβ1-42, 2 and 6 h) was “only amorphous material”, the Aβ1-42 fibril formation (Aβ1-42 [6]; 6 hrs., melatonin 100 μm (so in the source)) was “Well formed amyloid fibrils are easily recognized in FIG. 3A, but not in FIG. 3B” and the “inhibition of Aβ1-42 fibril formation” value (Aβ1-42 [6]; melatonin 100 nM, 1 μM, 10 μM, 100 μM, and 200 μM) was “effective to inhibit fibril formation”. The interaction with calmodulin (calmodulin) was “interacts with calmodulin”, the “change of random conformation” value (Aβ1-40 [1]) was “immediate increase” and the “change of β-sheet content” value (Aβ1-40 [1]) was “markedly diminished”. For the same compound, the β-sheet content (Aβ1-40 [1]; Aβ1-40 250 μM + melatonin 100 μM, 24 h of incubation) was 24%, the “prevention of cell death” value [7] was “effective in preventing death of cultured neuroblastoma cells” and the “prevention of intracellular Ca^+2 increases” value [7] was “effective in preventing”. The “prevention of oxidative damage” value [7] was “effective in preventing”, the lipid solubility [8] was “lipid soluble” and the “amount of β-sheet structures” value (Aβ1-42 [2]; 4 h of incubation) was 59%. The “amount of β-sheet structures” value (Aβ1-42 [2]; time 0) was 65%, the “interaction with microtubular components” value (microtubular components) was “interacts” and the “concentration of melatonin inhibiting fibril formation in all tubes” value (Aβ1-40 [3]; 250 μM Aβ1-40, 48 h) was “above 10 μM”. The Aβ1-40 fibril formation (Aβ1-40 [3]; 250 μM Aβ1-40 plus 100 μM melatonin) was “only amorphous material”, the Aβ1-40 fibril formation (Aβ1-40 [3]; [11]) was “Fibrils were not formed; also recorded: no fibrils were detected” and the “site of binding on Aβ” value (Aβ1-40 [9]; NMR shifts with varied melatonin concentrations) was “not localized to a particular His site on Aβ”. For the same compound, the “exchange regime of binding” value (Aβ1-40 [9]; no line broadening or separate peaks for bound and free states) was “fast exchange limit” and the “activity of intrinsic cellular antioxidant defenses” value [10] was “increase the activity”.
